# According to US12110295B2, “WD40 repeat domain protein 5 (WDR5) degradation/disruption compounds and methods of use” (Icahn School of Medicine at Mount Sinai, priority 2018, dated 2024):
# Target: WDR5 (Homo sapiens, UniProt P61964)
# Test: Screening of putative WDR5 degraders by Western blot in MV4;11 and/or MIAPACA2 cells
# Assay type: cell-based
# Parameters: After WDR5 degrader treatment, cells were collected and lysed; endogenous in cells; host or cells: MV4;11 and/or MIAPACA2
# Details: summary of screening, FIGS. 6-10
# How it was run: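 MV4;11 (1×10^6/well) or MIAPACA2 (1×10^5/well) cells treated 18 h with compound at paired doses between 0.1 and 10 μM, DMSO as control. Total lysates immunoblotted for WDR5 with vinculin, tubulin or GAPDH loading controls; fluorescent secondary detection.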
row,effective degradation of WDR5 in MV4;11 and/or MIAPACA2 cells,Compound
1,able to effectively degrade WDR5,"Cc1ncsc1-c1ccc(CNC(=O)[C@@H]2C[C@@H](O)CN2C(=O)[C@@H](NC(=O)COCCOCC(=O)N2CCN(Cc3cnc(N4CC=C(c5cc(NC(=O)c6c[nH]c(=O)cc6C(F)(F)F)c(N6C[C@@H](C)N(C)[C@@H](C)C6)cc5F)CC4)nc3)CC2)C(C)(C)C)cc1 [XF078-134, N-(4-fluoro-5-(1-(5-((4-(2-(2-(2-(((S)-1-((2S,4R)-4-hydroxy-2-((4-(4-methylthiazol-5-yl)benzyl)carbamoyl)pyrrolidin-1-yl)-3,3-dimethyl-1-oxobutan-2-yl)amino)-2-oxoethoxy)ethoxy)acetyl)piperazin-1-yl)methyl)pyrimidin-2-yl)-1,2,3,6-tetrahydropyridin-4-yl)-2-((3S,5R)-3,4,5-trimethylpiperazin-1-yl)phenyl)-6-oxo-4-(trifluoromethyl)-1,6-dihydropyridine-3-carboxamide]"
2,able to effectively degrade WDR5,"Cc1ncsc1-c1ccc(CNC(=O)[C@@H]2C[C@@H](O)CN2C(=O)[C@@H](NC(=O)CCOCCOCCC(=O)N2CCN(Cc3cnc(N4CC=C(c5cc(NC(=O)c6c[nH]c(=O)cc6C(F)(F)F)c(N6C[C@@H](C)N(C)[C@@H](C)C6)cc5F)CC4)nc3)CC2)C(C)(C)C)cc1 [XF078-135, N-(4-fluoro-5-(1-(5-((4-(3-(2-(3-(((S)-1-((2S,4R)-4-hydroxy-2-((4-(4-methylthiazol-5-yl)benzyl)carbamoyl)pyrrolidin-1-yl)-3,3-dimethyl-1-oxobutan-2-yl)amino)-3-oxopropoxy)ethoxy)propanoyl)piperazin-1-yl)methyl)pyrimidin-2-yl)-1,2,3,6-tetrahydropyridin-4-yl)-2-((3S,5R)-3,4,5-trimethylpiperazin-1-yl)phenyl)-6-oxo-4-(trifluoromethyl)-1,6-dihydropyridine-3-carboxamide]"
3,able to effectively degrade WDR5,"Cc1ncsc1-c1ccc(CNC(=O)[C@@H]2C[C@@H](O)CN2C(=O)[C@@H](NC(=O)COCCOCCOCC(=O)N2CCN(Cc3cnc(N4CC=C(c5cc(NC(=O)c6c[nH]c(=O)cc6C(F)(F)F)c(N6C[C@@H](C)N(C)[C@@H](C)C6)cc5F)CC4)nc3)CC2)C(C)(C)C)cc1 [XF078-136, N-(4-fluoro-5-(1-(5-((4-((S)-13-((2S,4R)-4-hydroxy-2-((4-(4-methylthiazol-5-yl)benzyl)carbamoyl)pyrrolidine-1-carbonyl)-14,14-dimethyl-11-oxo-3,6,9-trioxa-12-azapentadecanoyl)piperazin-1-yl)methyl)pyrimidin-2-yl)-1,2,3,6-tetrahydropyridin-4-yl)-2-((3S,5R)-3,4,5-trimethylpiperazin-1-yl)phenyl)-6-oxo-4-(trifluoromethyl)-1,6-dihydropyridine-3-carboxamide]"
4,able to effectively degrade WDR5,"Cc1ncsc1-c1ccc(CNC(=O)[C@@H]2C[C@@H](O)CN2C(=O)[C@@H](NC(=O)CCOCCOCCOCCC(=O)N2CCN(Cc3cnc(N4CC=C(c5cc(NC(=O)c6c[nH]c(=O)cc6C(F)(F)F)c(N6C[C@@H](C)N(C)[C@@H](C)C6)cc5F)CC4)nc3)CC2)C(C)(C)C)cc1 [XF078-137, N-(4-fluoro-5-(1-(5-((4-((S)-15-((2S,4R)-4-hydroxy-2-((4-(4-methylthiazol-5-yl)benzyl)carbamoyl)pyrrolidine-1-carbonyl)-16,16-dimethyl-13-oxo-4,7,10-trioxa-14-azaheptadecanoyl)piperazin-1-yl)methyl)pyrimidin-2-yl)-1,2,3,6-tetrahydropyridin-4-yl)-2-((3S,5R)-3,4,5-trimethylpiperazin-1-yl)phenyl)-6-oxo-4-(trifluoromethyl)-1,6-dihydropyridine-3-carboxamide]"
5,able to effectively degrade WDR5,"Cc1ncsc1-c1ccc(CNC(=O)[C@@H]2C[C@@H](O)CN2C(=O)[C@@H](NC(=O)CCOCCOCCOCCOCCC(=O)N2CCN(Cc3cnc(N4CC=C(c5cc(NC(=O)c6c[nH]c(=O)cc6C(F)(F)F)c(N6C[C@@H](C)N(C)[C@@H](C)C6)cc5F)CC4)nc3)CC2)C(C)(C)C)cc1 [XF078-138, N-(4-fluoro-5-(1-(5-((4-((S)-18-((2S,4R)-4-hydroxy-2-((4-(4-methylthiazol-5-yl)benzyl)carbamoyl)pyrrolidine-1-carbonyl)-19,19-dimethyl-16-oxo-4,7,10,13-tetraoxa-17-azaicosanoyl)piperazin-1-yl)methyl)pyrimidin-2-yl)-1,2,3,6-tetrahydropyridin-4-yl)-2-((3S,5R)-3,4,5-trimethylpiperazin-1-yl)phenyl)-6-oxo-4-(trifluoromethyl)-1,6-dihydropyridine-3-carboxamide]"
6,able to effectively degrade WDR5,"Cc1ncsc1-c1ccc(CNC(=O)[C@@H]2C[C@@H](O)CN2C(=O)[C@@H](NC(=O)COCCOCCOCCOCCOCC(=O)N2CCN(Cc3cnc(N4CC=C(c5cc(NC(=O)c6c[nH]c(=O)cc6C(F)(F)F)c(N6C[C@@H](C)N(C)[C@@H](C)C6)cc5F)CC4)nc3)CC2)C(C)(C)C)cc1 [XF078-139, N-(4-fluoro-5-(1-(5-((4-((S)-19-((2S,4R)-4-hydroxy-2-((4-(4-methylthiazol-5-yl)benzyl)carbamoyl)pyrrolidine-1-carbonyl)-20,20-dimethyl-17-oxo-3,6,9,12,15-pentaoxa-18-azahenicosanoyl)piperazin-1-yl)methyl)pyrimidin-2-yl)-1,2,3,6-tetrahydropyridin-4-yl)-2-((3S,5R)-3,4,5-trimethylpiperazin-1-yl)phenyl)-6-oxo-4-(trifluoromethyl)-1,6-dihydropyridine-3-carboxamide]"
7,able to effectively degrade WDR5,"Cc1ncsc1-c1ccc(CNC(=O)[C@@H]2C[C@@H](O)CN2C(=O)[C@@H](NC(=O)CCC(=O)N2CCN(Cc3cnc(N4CC=C(c5cc(NC(=O)c6c[nH]c(=O)cc6C(F)(F)F)c(N6C[C@@H](C)N(C)[C@@H](C)C6)cc5F)CC4)nc3)CC2)C(C)(C)C)cc1 [XF078-141, N-(4-fluoro-5-(1-(5-((4-(4-(((S)-1-((2S,4R)-4-hydroxy-2-((4-(4-methylthiazol-5-yl)benzyl)carbamoyl)pyrrolidin-1-yl)-3,3-dimethyl-1-oxobutan-2-yl)amino)-4-oxobutanoyl)piperazin-1-yl)methyl)pyrimidin-2-yl)-1,2,3,6-tetrahydropyridin-4-yl)-2-((3S,5R)-3,4,5-trimethylpiperazin-1-yl)phenyl)-6-oxo-4-(trifluoromethyl)-1,6-dihydropyridine-3-carboxamide]"
8,able to effectively degrade WDR5,"Cc1ncsc1-c1ccc(CNC(=O)[C@@H]2C[C@@H](O)CN2C(=O)[C@@H](NC(=O)CCCC(=O)N2CCN(Cc3cnc(N4CC=C(c5cc(NC(=O)c6c[nH]c(=O)cc6C(F)(F)F)c(N6C[C@@H](C)N(C)[C@@H](C)C6)cc5F)CC4)nc3)CC2)C(C)(C)C)cc1 [XF078-142, N-(4-fluoro-5-(1-(5-((4-(5-(((S)-1-((2S,4R)-4-hydroxy-2-((4-(4-methylthiazol-5-yl)benzyl)carbamoyl)pyrrolidin-1-yl)-3,3-dimethyl-1-oxobutan-2-yl)amino)-5-oxopentanoyl)piperazin-1-yl)methyl)pyrimidin-2-yl)-1,2,3,6-tetrahydropyridin-4-yl)-2-((3S,5R)-3,4,5-trimethylpiperazin-1-yl)phenyl)-6-oxo-4-(trifluoromethyl)-1,6-dihydropyridine-3-carboxamide]"
9,able to effectively degrade WDR5,"Cc1ncsc1-c1ccc(CNC(=O)[C@@H]2C[C@@H](O)CN2C(=O)[C@@H](NC(=O)CCCCC(=O)N2CCN(Cc3cnc(N4CC=C(c5cc(NC(=O)c6c[nH]c(=O)cc6C(F)(F)F)c(N6C[C@@H](C)N(C)[C@@H](C)C6)cc5F)CC4)nc3)CC2)C(C)(C)C)cc1 [XF078-143, N-(4-fluoro-5-(1-(5-((4-(6-(((S)-1-((2S,4R)-4-hydroxy-2-((4-(4-methylthiazol-5-yl)benzyl)carbamoyl)pyrrolidin-1-yl)-3,3-dimethyl-1-oxobutan-2-yl)amino)-6-oxohexanoyl)piperazin-1-yl)methyl)pyrimidin-2-yl)-1,2,3,6-tetrahydropyridin-4-yl)-2-((3S,5R)-3,4,5-trimethylpiperazin-1-yl)phenyl)-6-oxo-4-(trifluoromethyl)-1,6-dihydropyridine-3-carboxamide]"
10,able to effectively degrade WDR5,"Cc1ncsc1-c1ccc(CNC(=O)[C@@H]2C[C@@H](O)CN2C(=O)[C@@H](NC(=O)CCCCCC(=O)N2CCN(Cc3cnc(N4CC=C(c5cc(NC(=O)c6c[nH]c(=O)cc6C(F)(F)F)c(N6C[C@@H](C)N(C)[C@@H](C)C6)cc5F)CC4)nc3)CC2)C(C)(C)C)cc1 [XF078-144, N-(4-fluoro-5-(1-(5-((4-(7-(((S)-1-((2S,4R)-4-hydroxy-2-((4-(4-methylthiazol-5-yl)benzyl)carbamoyl)pyrrolidin-1-yl)-3,3-dimethyl-1-oxobutan-2-yl)amino)-7-oxoheptanoyl)piperazin-1-yl)methyl)pyrimidin-2-yl)-1,2,3,6-tetrahydropyridin-4-yl)-2-((3S,5R)-3,4,5-trimethylpiperazin-1-yl)phenyl)-6-oxo-4-(trifluoromethyl)-1,6-dihydropyridine-3-carboxamide]"
